Read-outs that look alike come from different tables or passages of the source.
How the values were obtained:
Assay type in all cases: cell-based, human
[1] = tested on: interferon gamma release by lymphocytes; assay: Lymphocyte assay: interferon gamma release; conditions: two donors (FIG. 11)
Text: Lymphocytes are mononuclear leukocytes, which participate in specific immune responses to foreign antigens and in the manifestation of auto-immune diseases. T lymphocytes produce IL-2, a key factor for lymphocyte activation and proliferation, in response to antigen stimulation via the CD3-T cell receptor complex and the pathway involved in this response is the NF-AT. […] A lymphocyte assay was designed to model this response and to determine the effect of test compound on IL-2 production by anti-CD3-stimulated T cells isolated from peripheral blood. This assay uses a sub-optimal dose of an anti-CD3 monoclonal antibody (OKT3, 25 ng/ml) immobilised to a 96-well plate to stimulate a T cell response. The level of IL-2 released into the cell culture supernatants was quantified using a standard sandwich ELISA. Similarly, other cytokines such as TNFα and IFN-γ can also be measured in the same assay. […]
Lymphocytes were then seeded to a 96-well plate pre-coated with anti-CD3 monoclonal antibody (OKT3) at 25 ng/ml and immediately, the test compounds (Peak 1, mixture 1 acid; Peak 1, mixture 2 acid; AH-13205 racemate; PGE2) in appropriate dilutions were added to corresponding wells according to the experimental design. […] The levels of IFN-γ was assessed by using the ProteoPlex 16 well human cytokine array assay kit according to the manufacturer's instruction.

[2] = tested on: TNFα production by lymphocytes; assay: Lymphocyte assay: TNFα production; conditions: Homo sapiens, Lymphocyte, inhibition of TNFα production by lymphocytes, mean of three donors
Text: (§1) Lymphocytes are mononuclear leukocytes, which participate in specific immune responses to foreign antigens and in the manifestation of auto-immune diseases. T lymphocytes produce IL-2, a key factor for lymphocyte activation and proliferation, in response to antigen stimulation via the CD3-T cell receptor complex and the pathway involved in this response is the NF-AT. […] A lymphocyte assay was designed to model this response and to determine the effect of test compound on IL-2 production by anti-CD3-stimulated T cells isolated from peripheral blood. This assay uses a sub-optimal dose of an anti-CD3 monoclonal antibody (OKT3, 25 ng/ml) immobilised to a 96-well plate to stimulate a T cell response. The level of IL-2 released into the cell culture supernatants was quantified using a standard sandwich ELISA. Similarly, other cytokines such as TNFα and IFN-γ can also be measured in the same assay.
(§2) Human peripheral blood mononuclear cells from healthy volunteers were isolated from whole blood by Ficoll-Hypaque density centrifugation and adherence to plastic. The non-adherent lymphocyte fraction was used to set up the lymphocyte assay and the adherent monocytes were then recovered by scraping and subsequently used in the monocyte assay.
Lymphocytes were then seeded to a 96-well plate pre-coated with anti-CD3 monoclonal antibody (OKT3) at 25 ng/ml and immediately, the test compounds (Peak 1, mixture 1 acid; Peak 1, mixture 2 acid; AH-13205 racemate; PGE2) in appropriate dilutions were added to corresponding wells according to the experimental design. The plate was incubated for 24 hours at 37° C. with 5% CO2 in air and supernatants were recovered for ELISA analysis at the end of incubation period. The levels of IFN-γ was assessed by using the ProteoPlex 16 well human cytokine array assay kit according to the manufacturer's instruction.

lymphocyte proliferation = assay: Lymphocyte proliferation driven by immobilised anti-CD3 antibody; conditions: Homo sapiens, inhibition of lymphocyte proliferation, 72 h, mean of three donors
Text: as §1, §2
For the measurement of lymphocyte proliferation driven by immobilised anti-CD3 monoclonal antibody, the assay was set up in the same way as for the measurement of IL-2 release, except that the cells were cultured for 72 hours in the presence or absence of test compounds. Four hours prior to the termination of the proliferation assay, a novel tetrazolium compound solution supplied by Promega in the format of Cell Proliferation Assay Kit was added to individual wells according to the manufacturer's instruction. The plate was then placed back in the incubator for the remaining 4 hours and the […] reaction was measured using a spectrophotometer at an absorbent wavelength of 490 nm (SpectraMax, Molecular Devices) according to the manufacturer's instruction.

[3] = tested on: TNFα production by alveolar macrophages; assay: Alveolar macrophage assay: LPS-induced TNFα release; conditions: Homo sapiens, Macrophage, inhibition of TNFα production, LPS 1 μg/ml, 24 h, mean of three donors
Experimental: Human lung parenchyma was cut into small pieces and perfused with ice-cold phosphate buffered saline (PBS) to remove contaminating blood and mucus. The tissues were then chopped with scissors in the presence of Minimum Essential Medium supplemented with penicillin, streptomycin, L-glutamine and DNase (0.25 mg/ml). The chopped tissues were shaken gently to dislodge the macrophages. A crude cell suspension was then obtained by the removal of the tissues with a sterile filter (150 μm pore size). The resulting cell suspension was spun and the cell pellet collected. Contaminating red blood cells were depleted with a red blood cell lysis buffer and the remaining cells washed twice with PBS by centrifugation. Alveolar macrophages were then purified from this cell preparation by using a positive selection method for CD14-molecule bearing cells using a VarioMac™ Separator and respective positive selection reagents and columns supplied by Miltenyi Biotec Ltd according to the manufacturer's instruction.
For the assay, alveolar macrophages were resuspended in complete culture medium consisting of RPMI1640 supplemented with 10% foetal calf serum, L-glutamine and antibiotics. The cells were then plated into 24 well plates (4×10^5 cell/well) and incubated overnight at 37° C. with 5% CO2 in air to allow cell adherence. The exhausted medium was then removed from the plates and the plates rinsed briefly with fresh medium before the addition of test compound solutions. The test compounds were incubated with the cells for 30 minutes before the addition of E. Coli LPS (1 μg/ml). The assay plates were incubated in a humidified incubator at 37° C. with 5% CO2 in air for 24 hours. The release of TNFα by the cells into the culture supernatants was quantified using an ELISA kit (DuoSet® human TNFα ELSIA Development System) supplied by R+D Systems (Europe) according to the manufacturer's instruction. Indomethacin at 3 μM was included in all treatments to inhibit the possible release of endogenous prostaglandin E2.

[4] = log scale, read-out: Mean Log (EC50) (converted)

EC50 ([2]; read-out: Mean EC50): 2.33 µM
EC50 [2, 4]: 2.33 µM
EC50 ([3]; read-out: Mean EC50): 7.02 µM
EC50 [3, 4]: 7.01 µM
Compound: CCCCC[C@H](O)c1ccc([C@H]2CCC(=O)[C@@H]2CCCCCCC(=O)O)cc1 (single isomer, unassigned) [Peak 1, Mixture 1 acid]
interferon gamma release [1]: concentration-dependently inhibit interferon gamma release
EC50 (lymphocyte proliferation; read-out: Mean EC50): 10 µM
EC50 (lymphocyte proliferation; [4]): 10 µM

— patent publication US20050209336A1, “EP2 receptor agonists” (priority 2003, published 2005)
